Tests used:
Stat1:Stat1 complex = biological target: T1, Stat1:Stat1 complex (Mus musculus, UniProt P42225); experiment: EMSA selectivity, nuclear extracts of EGF-stimulated NIH3T3/hEGFR, hSIE probe; format: biochemical
T1 construct: endogenous in cells; host or cells: EGF-stimulated NIH3T3/hEGFR mouse fibroblasts (nuclear extract)
T1 sequence (P42225 2-749 limits assumed): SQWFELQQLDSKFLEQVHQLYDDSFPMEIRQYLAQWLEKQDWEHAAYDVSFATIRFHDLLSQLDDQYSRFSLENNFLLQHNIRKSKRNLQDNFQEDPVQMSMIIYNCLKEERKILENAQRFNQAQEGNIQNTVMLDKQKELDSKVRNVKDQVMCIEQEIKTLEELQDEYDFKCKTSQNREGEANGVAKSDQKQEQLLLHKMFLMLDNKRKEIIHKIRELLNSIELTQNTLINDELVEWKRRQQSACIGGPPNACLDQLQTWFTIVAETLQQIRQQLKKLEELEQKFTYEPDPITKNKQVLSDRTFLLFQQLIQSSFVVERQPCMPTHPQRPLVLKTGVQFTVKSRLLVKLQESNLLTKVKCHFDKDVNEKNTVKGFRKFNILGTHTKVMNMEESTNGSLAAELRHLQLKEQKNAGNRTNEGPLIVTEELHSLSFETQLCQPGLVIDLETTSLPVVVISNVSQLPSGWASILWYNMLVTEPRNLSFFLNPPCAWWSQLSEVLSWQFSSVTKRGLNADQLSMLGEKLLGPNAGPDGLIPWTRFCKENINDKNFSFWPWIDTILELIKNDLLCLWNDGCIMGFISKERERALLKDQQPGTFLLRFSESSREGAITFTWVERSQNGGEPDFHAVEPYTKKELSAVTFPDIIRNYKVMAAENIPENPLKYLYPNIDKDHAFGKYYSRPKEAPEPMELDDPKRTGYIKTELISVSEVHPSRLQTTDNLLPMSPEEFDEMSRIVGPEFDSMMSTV
Procedure: (§1) Nuclear extract preparations and electrophoretic mobility shift assay (EMSA) were carried out as previously described (28,33). […] Except where indicated, nuclear extracts were pre-incubated with compound for 30 min at room temperature prior to incubation with the radiolabeled probe for 30 min at 30° C. before subjecting to EMSA analysis.

Stat1:Stat3 complex = biological target: T2, Stat1:Stat3 complex (Mus musculus, UniProt P42227); experiment: as above; format: biochemical
T2 construct: endogenous in cells; host or cells: EGF-stimulated NIH3T3/hEGFR mouse fibroblasts (nuclear extract)
T2 sequence (P42227 2-770 limits assumed, one chain of several): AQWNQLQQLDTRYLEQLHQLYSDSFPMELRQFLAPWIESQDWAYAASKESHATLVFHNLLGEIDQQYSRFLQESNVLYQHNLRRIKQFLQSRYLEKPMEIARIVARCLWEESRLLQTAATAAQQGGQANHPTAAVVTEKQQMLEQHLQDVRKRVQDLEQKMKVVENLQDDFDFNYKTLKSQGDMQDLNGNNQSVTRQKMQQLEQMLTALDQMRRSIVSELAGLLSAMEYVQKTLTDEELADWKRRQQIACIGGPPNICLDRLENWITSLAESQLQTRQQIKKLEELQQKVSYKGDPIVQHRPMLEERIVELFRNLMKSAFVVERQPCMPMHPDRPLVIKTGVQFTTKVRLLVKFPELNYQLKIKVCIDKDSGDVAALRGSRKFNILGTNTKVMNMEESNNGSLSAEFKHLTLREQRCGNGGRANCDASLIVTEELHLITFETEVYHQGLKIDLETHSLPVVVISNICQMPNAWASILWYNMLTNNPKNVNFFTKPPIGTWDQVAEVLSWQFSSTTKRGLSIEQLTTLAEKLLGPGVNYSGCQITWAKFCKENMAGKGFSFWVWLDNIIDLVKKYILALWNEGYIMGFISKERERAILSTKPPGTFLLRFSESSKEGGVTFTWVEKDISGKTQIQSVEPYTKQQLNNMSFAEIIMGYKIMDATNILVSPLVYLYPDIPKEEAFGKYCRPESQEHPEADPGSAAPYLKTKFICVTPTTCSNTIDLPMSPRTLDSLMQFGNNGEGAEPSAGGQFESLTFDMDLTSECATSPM
Procedure: as §1

Stat3:Stat3 complex = biological target: T3, Stat3:Stat3 complex (Mus musculus, UniProt P42227); experiment: as above; format: biochemical
T3 construct: endogenous in cells; host or cells: EGF-stimulated NIH3T3/hEGFR mouse fibroblasts (nuclear extract)
T3 sequence (P42227 2-770 limits assumed, one chain of several): as above
Procedure: as §1

Stat5:Stat5 complex = experiment: EMSA selectivity, nuclear extracts of EGF-stimulated NIH3T3/hEGFR, MGFe probe; format: biochemical, mouse; conditions: up to 300 μM
Procedure: as §1

Stat3 SH2 domain = biological target: T4, Stat3 SH2 domain (Mus musculus, UniProt P42227); experiment: EMSA of Stat3 DNA-binding with added purified His-tagged Stat3 SH2 domain; format: biochemical, murine; conditions: 1-500 ng His-SH2; full recovery at 125-500 ng
T4 construct: Purified histidine-tagged Stat3 SH2 domain (His-SH2) was added at increasing concentrations (1-500 ng); SUMO (vector pET SUMO); made in house; host or cells: E. coli BL21(DE3)
T4 sequence (P42227 580-670 limits assumed): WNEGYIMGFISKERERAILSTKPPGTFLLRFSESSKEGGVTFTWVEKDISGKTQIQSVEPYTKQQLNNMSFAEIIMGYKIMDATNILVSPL
Source text: Coding regions for the murine Stat3 protein and Stat3 SH2 domain were amplified by PCR and cloned into vectors pET-44 Ek/LIC (Novagen) and pET SUMO (Invitrogen), respectively.

pTyr705Stat3 = experiment: Western blot of pTyr705Stat3 in NIH3T3/v-Src and Panc-1 cells; format: cell-based, mouse, human; conditions: 24 h
Procedure: (§2) Immunoprecipitation from whole-cell lysates and SDS/PAGE and Western blotting analysis were performed as previously described (33,38).

[1] = system: Src (pY416Src), Jak1 (pJak), Shc (pShc), and Erk1/2 (pErk1/2); experiment: Western blot of phosphorylation of Src, Jak1, Shc, Erk1/2 in NIH3T3/v-Src and Panc-1 cells; format: cell-based, mouse, human
Procedure: as §2
We infer that […].

Stat3:EGFR immunecomplex = biological target: T5, Stat3:EGFR immunecomplex (Homo sapiens, UniProt P40763); experiment: Direct treatment of EGFR and Stat3 immunecomplexes from Panc-1 lysates, Western blotting; format: biochemical; conditions: 0-100 M, 3 h
T5 construct: precipitated from whole-cell lysates of untreated Panc-1 cells; endogenous in cells; host or cells: Panc-1 cells (immunoprecipitates from whole-cell lysates)
T5 sequence (P40763 2-770 limits assumed, one chain of several): as the sequence (P42227 2-770 limits assumed, one chain of several) above, with D759E counted along it
Procedure: as §2
The EGFR levels in the immunecomplexes remained unchanged (FIG. 4B(ii), upper band). […] The Stat3 levels in the immunecomplexes remained unchanged (FIG. 4B(ii), i.p. Stat3, blot Stat3).

NIH3T3 = experiment: CyQuant cell viability; format: cell-based, mouse
Source text: (§3) Aberrant Stat3 promotes malignant cell proliferation, survival and malignant transformation (10, 20, 42). Given that S3I201.1066 disrupts Stat3 activation, we asked the question whether this agent is able to selectively decrease the viability and growth of malignant cells that harbor aberrant Stat3 activity.

[2] = system: Stat3-null MEFs (Stat3−/−); experiment: CyQuant cell viability; format: cell-based, mouse
Source text: as §3

[3] = system: NIH3T3/v-Src, MDA-MB-231 and Panc-1 cells; experiment: Viable cell numbers and growth (CyQuant, trypan blue exclusion), cells with aberrant Stat3; format: cell-based, mouse, human
NIH3T3/v-Ras = experiment: Colony survival assay; format: cell-based, mouse
Procedure: This was performed as previously reported (39). […] Colonies were stained with crystal violet for 4 h and counted under phase-contrast microscope.
Cultured single-cells were untreated or treated once with S3I-201.1066 and allowed to grow until large colonies were visible, which were stained and enumerated.

[4] = system: human breast cancer (MDA-MB-231) xenografts; conditions: mouse, in vivo
Source text: Wounds were made using pipette tips in monolayer cultures of cells in six-well plates. […] The migration of cells was visualized at a 10× magnification using an Axiovert 200 Inverted Fluorescence Microscope (Zeiss, Göttingen Germany), with pictures taken using a mounted Canon Powershot A640 digital camera (Canon USA, Lake Success, N.Y.). Cells that migrated into the denuded area were quantified. Mice and in vivo tumor studies-Six-week-old female athymic nude mice were purchased from Harlan and maintained in the institutional animal facilities approved by the American Association for Accreditation of Laboratory Animal Care. Athymic nude mice were injected subcutaneously in the left flank area with 5×10^6 human breast cancer MDA-MB-231 cells in 100 μL of PBS. After 5 to 10 days, tumors of a diameter of 3 mm were established. […] Tumor volume was calculated according to the formula V=0.52×a^2×b, where a, smallest superficial diameter, b, largest superficial diameter.

[5] = increasing concentrations, 24-144 h

Cc1ccc(S(=O)(=O)N(C)CC(=O)N(Cc2ccc(C3CCCCC3)cc2)c2ccc(C(=O)O)c(O)c2)cc1 [S3I-201.1066]
inhibition of Stat1:Stat1 complex (Stat1:Stat1 complex; 50 μM): no significant inhibition
inhibition of Stat1:Stat1 complex (Stat1:Stat1 complex; 100 μM): moderate inhibition
inhibition of Stat1:Stat1 complex (Stat1:Stat1 complex; 200 μM): complete inhibition
effect on Stat1:Stat3 complex (Stat1:Stat3 complex; 50 μM): similarly repressed
effect on Stat1:Stat3 complex (Stat1:Stat3 complex; 100 μM): completely disrupted
effect on Stat3:Stat3 complex with hSIE probe (Stat3:Stat3 complex; 50 μM): significantly disrupted
effect on Stat3:Stat3 complex with hSIE probe (Stat3:Stat3 complex; 100 μM): completely disrupted
effect on Stat5:Stat5 complex with the MGFe probe (Stat5:Stat5 complex): no effect
inhibition of Stat3 DNA-binding activity in presence of increasing purified His-SH2 domain (Stat3 SH2 domain): progressively eliminated
pTyr705Stat3 levels (pTyr705Stat3): concentration-dependent reduction
pJak1 level in Panc-1 cells ([1]; 100 μM, Panc-1): disappearance of pJak1 level
inhibitory effect on phosphorylation of Src, Jak1, Erk1/2MAPK and Shc ([1]; 30-50 μM): minimum inhibitory effect
phosphorylation of Src, Jak1, Shc and Erk1/2 ([1]; 24 h, NIH3T3/v-Src and Panc-1): no significant effects
EGFR levels in directly treated Stat3 immunecomplex (Stat3:EGFR immunecomplex): strongly reduced EGFR levels
level of Stat3 present in directly treated EGFR immunecomplex (Stat3:EGFR immunecomplex): dramatically diminished
levels of Shc or Grb 2 in directly treated EGFR immunecomplex (Stat3:EGFR immunecomplex): no visible changes
derived IC60 values, viability (NIH3T3): > 200 μMm
derived IC60 values, viability [2]: > 200 μMm
concentrations at which antitumor cell effects occurred [3]: 30 to 50 µM
growth (trypan blue exclusion) [3, 5]: growth inhibited
viable cell numbers [3, 5]: significantly reduced viable cell numbers
colony numbers, colony survival (NIH3T3/v-Ras): minimal effect
toxicity in tumor-bearing mice [4]: no obvious sign of toxicity

— patent publication US8895746B2 (University of Central Florida Research Foundation, Inc., priority 2009, dated 2014)
